Test results: ChEMBL document CHEMBL1201862, “PubChem BioAssay data set” (2004)
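Protocol summary: plate cells (96-well), add compound at 5 concentrations, incubate 48 h, interpolate endpoints linearly. GI50 is the concentration that inhibits growth by half.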 The source made the active and inactive calls. Rule as the data show it: active = GI50 up to about 1.1 µM and inactive = higher.

What was measured:
Test in all cases: growth of human tumour cells (NCI), 48 h
BT-549 = system: BT-549
NCI-H522 = system: NCI-H522
HCT-15 = system: HCT-15
NCI-H23 = system: NCI-H23
SNB-19 = system: SNB-19
SF-295 = system: SF-295
HCT-116 = system: HCT-116
UO-31 = system: UO-31
PC-3 = system: PC-3
TK-10 = system: TK-10
EKVX = system: EKVX
SK-MEL-2 = system: SK-MEL-2
IGROV-1 = system: IGROV-1
Hs-578T = system: Hs-578T
NCI/ADR-RES = system: NCI/ADR-RES
T47D = system: T47D
OVCAR-3 = system: OVCAR-3
MDA-MB-435 = system: MDA-MB-435
HT-29 = system: HT-29

## CC(=O)O[C@@H]1[C@H]2[C@@H](OC(=O)c3ccccc3)[C@@H](C)C[C@]2(O)[C@H](OC(C)=O)[C@@]2(C)[C@@H]3CC(C)(C)C(=O)[C@]3(OC(C)=O)C[C@@]12C
BT-549
  GI50: > 25 µM (inactive)
NCI-H522
  GI50: > 25 µM (inactive)
HCT-15
  GI50: > 25 µM
NCI-H23
  GI50: > 25 µM (inactive)
SNB-19
  GI50: > 25 µM (inactive)
SF-295
  GI50: 7 µM (inactive)
HCT-116
  GI50: > 25 µM (inactive)
UO-31
  GI50: 13.9 µM (inactive)
PC-3
  GI50: 17.7 µM (inactive)
TK-10
  GI50: > 25 µM (inactive)
EKVX
  GI50: > 25 µM (inactive)
SK-MEL-2
  GI50: > 25 µM (inactive)
IGROV-1
  GI50: > 25 µM (inactive)
Hs-578T
  GI50: 9.53 µM (inactive)
NCI/ADR-RES
  GI50: > 25 µM (inactive)
T47D
  GI50: > 25 µM (inactive)
OVCAR-3
  GI50: > 25 µM (inactive)
MDA-MB-435
  GI50: 13.8 µM (inactive)

## O=c1[nH]nc(Cc2ccccc2)n1Nc1ccccc1
BT-549
  GI50: > 100 µM (inactive)
NCI-H522
  GI50: > 100 µM (inactive)
HCT-15
  GI50: > 100 µM
NCI-H23
  GI50: > 100 µM (inactive)
SF-295
  GI50: > 100 µM (inactive)
HCT-116
  GI50: > 100 µM (inactive)
HT-29
  GI50: > 100 µM (inactive)
UO-31
  GI50: > 100 µM (inactive)
PC-3
  GI50: > 100 µM (inactive)
TK-10
  GI50: > 100 µM (inactive)
EKVX
  GI50: > 100 µM (inactive)
SK-MEL-2
  GI50: 48.4 µM (inactive)
IGROV-1
  GI50: > 100 µM (inactive)
Hs-578T
  GI50: > 100 µM (inactive)
NCI/ADR-RES
  GI50: > 100 µM (inactive)
T47D
  GI50: > 10 µM (inactive)
OVCAR-3
  GI50: > 100 µM (inactive)
MDA-MB-435
  GI50: > 100 µM (inactive)

## O=C(N/N=C/C=C/c1ccccc1)c1ccccc1Nc1ccccc1C(=O)N/N=C/C=C/c1ccccc1
BT-549
  GI50: > 100 µM (inactive)
HCT-15
  GI50: > 100 µM
NCI-H23
  GI50: > 100 µM (inactive)
SNB-19
  GI50: 11.9 µM (inactive)
SF-295
  GI50: 27.5 µM (inactive)
HCT-116
  GI50: 90.8 µM (inactive)
HT-29
  GI50: > 100 µM (inactive)
UO-31
  GI50: > 100 µM (inactive)
PC-3
  GI50: > 100 µM (inactive)
TK-10
  GI50: > 100 µM (inactive)
EKVX
  GI50: > 100 µM (inactive)
SK-MEL-2
  GI50: 59.4 µM (inactive)
IGROV-1
  GI50: > 100 µM (inactive)
Hs-578T
  GI50: 41.1 µM (inactive)
NCI/ADR-RES
  GI50: > 100 µM (inactive)
T47D
  GI50: > 100 µM (inactive)
OVCAR-3
  GI50: > 100 µM (inactive)
MDA-MB-435
  GI50: > 100 µM (inactive)

## O=C1CC(=O)NC(NN2C(=O)/C(=C/c3ccccc3)N=C2c2ccccc2)=N1
BT-549
  GI50: 26.6 µM (inactive)
NCI-H522
  GI50: > 100 µM (inactive)
HCT-15
  GI50: > 100 µM
NCI-H23
  GI50: 39 µM (inactive)
SF-295
  GI50: > 100 µM (inactive)
HCT-116
  GI50: > 100 µM (inactive)
HT-29
  GI50: > 100 µM (inactive)
UO-31
  GI50: 32.9 µM (inactive)
PC-3
  GI50: > 100 µM (inactive)
TK-10
  GI50: > 100 µM (inactive)
SK-MEL-2
  GI50: > 100 µM (inactive)
IGROV-1
  GI50: > 100 µM (inactive)
Hs-578T
  GI50: > 100 µM (inactive)
NCI/ADR-RES
  GI50: > 100 µM (inactive)
T47D
  GI50: > 100 µM (inactive)
OVCAR-3
  GI50: > 100 µM (inactive)
MDA-MB-435
  GI50: > 100 µM (inactive)

## CCc1ccccc1NNc1cc(=O)[nH]c(=O)[nH]1
BT-549
  GI50: 19.4 µM (inactive)
NCI-H23
  GI50: 34.8 µM (inactive)
SNB-19
  GI50: 20.3 µM (inactive)
SF-295
  GI50: 17.9 µM (inactive)
HCT-116
  GI50: 16.7 µM (inactive)
HT-29
  GI50: 20.8 µM (inactive)
UO-31
  GI50: 17.2 µM (inactive)
PC-3
  GI50: 16.6 µM (inactive)
TK-10
  GI50: > 10 µM (inactive)
EKVX
  GI50: 17.5 µM (inactive)
SK-MEL-2
  GI50: 16.6 µM (inactive)
IGROV-1
  GI50: 19.5 µM (inactive)
Hs-578T
  GI50: 28.6 µM (inactive)
NCI/ADR-RES
  GI50: 13.3 µM (inactive)
T47D
  GI50: 17.9 µM (inactive)
OVCAR-3
  GI50: 17.1 µM (inactive)
MDA-MB-435
  GI50: 19.1 µM (inactive)

## COc1cc(S(=O)(=O)Nc2nc(-c3ccc(N4C(=O)/C(=C/c5ccccc5)N=C4c4ccccc4)cc3)cs2)ccc1Cl
BT-549
  GI50: 38.5 µM (inactive)
NCI-H522
  GI50: 35.3 µM (inactive)
HCT-15
  GI50: > 100 µM
NCI-H23
  GI50: 25.2 µM (inactive)
SNB-19
  GI50: 50.6 µM (inactive)
SF-295
  GI50: > 100 µM (inactive)
HCT-116
  GI50: 36.5 µM (inactive)
HT-29
  GI50: 78.3 µM (inactive)
UO-31
  GI50: > 100 µM (inactive)
PC-3
  GI50: 36.6 µM (inactive)
TK-10
  GI50: > 100 µM (inactive)
SK-MEL-2
  GI50: 24.6 µM (inactive)
IGROV-1
  GI50: 44.2 µM (inactive)
Hs-578T
  GI50: 21 µM (inactive)
NCI/ADR-RES
  GI50: > 100 µM (inactive)
T47D
  GI50: 42.2 µM (inactive)
OVCAR-3
  GI50: 11.9 µM (inactive)
MDA-MB-435
  GI50: 46.9 µM (inactive)
